Read-outs that look alike come from different tables or passages of the source. Square brackets hold non-standard residues; d marks the D form. Ends that are not written are not given here. Peptide text beside a SMILES is read from it. pY = N[C@@H](Cc1ccc(OP(=O)(O)O)cc1)C(=O)O
Columns and labels:
DLAR D1 = biological target: T1, DLAR D1 (Drosophila melanogaster, UniProt P16621); assay: Dephosphorylation of phosphotyrosine peptides (malachite green), DLAR D1; assay type: biochemical; settings: for Km / Vmax / Kcat / Kcat/Km: 0.01 µM protein; for Km / Kcat / Kcat/Km: 25 mM citrate pH 6.0, 15 min at 25°C, malachite green; for Vmax: 25 mM citrate buffer pH 6.0, 100 mM NaCl, 2 mM DTT, 15 min at 25°C, Biomol Green, 650 nm, Michaelis-Menten fit; for peptide preference: order of peptide substrates, DLAR D1 domain
T1 construct: DLAR 1448-1746; His tag (pET-15b or pET-22b); made in house; host or cells: E. coli BL21(DE3)
T1 sequence (P16621 1448-1746): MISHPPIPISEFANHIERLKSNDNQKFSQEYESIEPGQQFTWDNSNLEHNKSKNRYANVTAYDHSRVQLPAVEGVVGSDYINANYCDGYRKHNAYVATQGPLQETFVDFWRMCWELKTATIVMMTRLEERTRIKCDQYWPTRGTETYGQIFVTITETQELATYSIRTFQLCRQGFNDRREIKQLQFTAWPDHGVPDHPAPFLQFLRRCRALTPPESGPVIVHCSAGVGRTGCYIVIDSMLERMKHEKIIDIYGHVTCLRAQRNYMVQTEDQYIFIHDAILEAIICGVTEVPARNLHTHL
Text: (§1) Substrates of PTPs characterized thus far include the activation loop segments of various kinases and regulatory loops of other signaling proteins. Suitably designed peptide substrates mimic the physiologically relevant substrates of PTPs. In the present study, peptide substrates were designed for DLAR for which more information was available on its interacting partners. […] The five peptides were chosen based on their distinct charge distributions around the central phosphotyrosine residue. The phosphorylated as well as non-phosphorylated peptides were obtained from GL Bioscience, China. The peptides were >95% pure and were used after a single round of desalting using a Sephadex G25 column (GE Healthcare). The concentration of the peptide samples for biochemical studies was ascertained by UV absorption at 268 nm for the pY residue.
(§2) Phosphatase activity of the recombinant PTP domains was determined by using para-Nitrophenylphosphate (pNPP), a small molecule generic substrate, as well as phosphotyrosine containing peptides. The pNPP assay was performed as reported previously, with a modification in the buffer composition (25 mM Citrate, Glycine and HEPES (CGH), pH 6.5, 100 mM NaCl and 2 mM DTT). Phosphatase activity with the phosphotyrosine peptides was ascertained by the malachite green reaction as described for PTPs previously. Briefly, the reaction mixture comprised of 0.01 µM protein incubated with increasing concentrations of different peptides in 25 mM citrate buffer pH 6.0, 100 mM NaCl and 2 mM DTT for 15 min at 25°C. The reaction was stopped by the addition of the Biomol Green reagent (Enzo Life Sciences) and the colour developed after 20 min was quantified at 650 nm. For all the assays, kinetic constants for the steady state catalysis were obtained by fitting the reaction curves to the Michaelis-Menten equation using the nonlinear regression module of Sigma plot software (Systat Software, Inc.).

PTP99A D1 = biological target: T2, PTP99A D1 (Drosophila melanogaster, UniProt P35832); assay: Dephosphorylation of phosphotyrosine peptides (malachite green), PTP99A D1; settings: for Vmax / Kcat / Kcat/Km / Km: 0.01 µM protein; for Vmax: 25 mM citrate buffer pH 6.0, 100 mM NaCl, 2 mM DTT, 15 min at 25°C, Biomol Green, 650 nm, Michaelis-Menten fit; for Kcat / Kcat/Km / Km: 25 mM citrate pH 6.0, 15 min at 25°C, malachite green; for peptide preference: order of peptide substrates
T2 sequence (P35832 450-756): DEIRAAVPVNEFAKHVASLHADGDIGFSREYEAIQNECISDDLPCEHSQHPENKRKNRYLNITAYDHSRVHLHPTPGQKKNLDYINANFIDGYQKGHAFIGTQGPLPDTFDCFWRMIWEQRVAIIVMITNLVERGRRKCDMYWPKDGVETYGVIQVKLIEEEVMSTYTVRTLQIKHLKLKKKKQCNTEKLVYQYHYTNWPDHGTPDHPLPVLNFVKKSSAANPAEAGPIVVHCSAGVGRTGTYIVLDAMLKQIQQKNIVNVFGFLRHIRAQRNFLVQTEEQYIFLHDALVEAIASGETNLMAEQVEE
Text: as §1, §2

PTP99A D2 = biological target: T3, PTP99A D2 (Drosophila melanogaster, UniProt P35832); assay: Peptide preference of the PTP99A D2 domain from ratios of kcat/Km (D1D2 vs D1); assay type: biochemical; settings: order of peptide substrates, from comparison of kcat/Km of D1D2 with D1
T3 sequence (P35832 740-1050): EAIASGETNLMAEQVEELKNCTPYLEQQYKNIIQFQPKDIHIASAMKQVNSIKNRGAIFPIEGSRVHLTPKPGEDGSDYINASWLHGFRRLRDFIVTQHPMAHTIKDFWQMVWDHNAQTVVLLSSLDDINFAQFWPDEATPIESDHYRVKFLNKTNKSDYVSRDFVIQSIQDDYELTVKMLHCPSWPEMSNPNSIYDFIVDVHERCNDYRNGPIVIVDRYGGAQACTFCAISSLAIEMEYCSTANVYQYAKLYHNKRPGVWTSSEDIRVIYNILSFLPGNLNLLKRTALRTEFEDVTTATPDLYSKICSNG
Procedure: as §2
The difference between the most and least preferred substrate in the case of DLAR D1D2 was much less (∼16.0×10^4 sec^−1 M^−1 between Cuticle and Myospheroid peptides) when compared to DLAR D1 alone (∼130.0×10^4 sec^−1 M^−1 between Insulin Receptor and Abelson peptides). […] A more comprehensive study of this activation mechanism is being reported elsewhere.

| Compound | Km (DLAR D1) [µM] | Vmax (DLAR D1) [µmol/min/mg] | Kcat (DLAR D1) [s⁻¹] | Kcat/Km (DLAR D1) | Km (DLAR D1; read-out: Km) [µM] | peptide preference (DLAR D1) | Vmax (PTP99A D1) [µmol/min/mg] | Kcat (PTP99A D1) [s⁻¹] | Kcat/Km (PTP99A D1) | Km (PTP99A D1) [µM] | peptide preference (PTP99A D1; PTP99A D1 domain) | peptide preference (PTP99A D2) | difference between the most and least preferred substrate (kcat/Km) (PTP99A D1; PTP99A D1 domain, between Abelson peptide and Insulin Receptor peptides) [M⁻¹ s⁻¹] |
| --- | --- | --- | --- | --- | --- | --- | --- | --- | --- | --- | --- | --- | --- |
| CC(C)C[C@H](NC(=O)[C@H](C)NC(=O)CNC(=O)[C@H](Cc1ccc(OP(=O)(O)O)cc1)NC(=O)[C@H](CC(=O)O)NC(=O)[C@@H]1CCCN1C(=O)[C@H](CCC(=O)O)NC(=O)[C@H](C)NC(=O)[C@@H](N)[C@@H](C)O)C(=O)N[C@@H](Cc1ccc(O)cc1)C(=O)N[C@@H](CCC(=O)O)C(=O)O [Cuticle peptide] (H-TAEPD[pY]GALYE-OH) | 56.5 ± 4.64 | – | – | – | – | – | – | – | – | – | – | – | – |
| CDDS[pY]FGNKC (cysteine pairing not given here) [Myospheroid peptide, phosphotyrosine peptide CDDSpYFGNKC from PeptideMine server, obtained from GL Bioscience, >95% pure] | – | 29.58 ± 0.84 | 23.66 ± 0.67 | 30.14 ± 0.06 x 10^4 sec^-1M^-1 | 78.5 ± 6.67 | Insulin receptor peptide>Cuticle peptide>Nervous fingers peptide>Myospheroid peptide>Abelson peptide | 2.72 ± 0.13 | 1.81 ± 0.08 | 20.40 ± 0.59 x 10^2 sec^-1M^-1 | 887 ± 102 | Abelson peptide>Cuticle peptide>Nervous fingers peptide>Myospheroid peptide>Insulin receptor peptide | Nervous fingers peptide>Abelson peptide>Cuticle peptide>Myospheroid peptide>Insulin receptor peptide | – |
| RDDT[pY]TAHAG [Abelson peptide, phosphotyrosine peptide RDDTpYTAHAG from PeptideMine server, obtained from GL Bioscience, >95% pure] | – | 4.95 ± 0.59 | 3.96 ± 0.68 | 21.77 ± 0.32 x 10^4 sec^-1M^-1 | 18.2 ± 8.98 | Insulin receptor peptide>Cuticle peptide>Nervous fingers peptide>Myospheroid peptide>Abelson peptide | 0.83 ± 0.05 | 0.55 ± 0.04 | 45.19 ± 0.29 x 10^2 sec^-1M^-1 | 122 ± 26.6 | Abelson peptide>Cuticle peptide>Nervous fingers peptide>Myospheroid peptide>Insulin receptor peptide | Nervous fingers peptide>Abelson peptide>Cuticle peptide>Myospheroid peptide>Insulin receptor peptide | ~3000 |
| VIGD[pY]VCRLCK (cysteine pairing not given here) [Nervous Fingers peptide, phosphotyrosine peptide VIGDpYVCRLCK from PeptideMine server, obtained from GL Bioscience, >95% pure] | – | 37.5 ± 1.4 | 30 ± 1.12 | 78.51 ± 0.09 x 10^4 sec^-1M^-1 | 38.2 ± 5.05 | Insulin receptor peptide>Cuticle peptide>Nervous fingers peptide>Myospheroid peptide>Abelson peptide | 4.42 ± 0.14 | 2.94 ± 0.10 | 21.61 ± 0.24 x 10^2 sec^-1M^-1 | 1360 ± 94.7 | Abelson peptide>Cuticle peptide>Nervous fingers peptide>Myospheroid peptide>Insulin receptor peptide | Nervous fingers peptide>Abelson peptide>Cuticle peptide>Myospheroid peptide>Insulin receptor peptide | – |
